Test results as given in patent publication US20100022562A1, “Use of Plant Growth Regulators to Reduce Abscisic Acid Related Plant Leaf Yellowing” (priority 2008, published 2010).
Values belong to the compound of their own block, whether it stands above or below them.

How the values were obtained:
Assay type in all cases: in vivo
Pansy plants [1] = test: Pansy yellow leaf number (leaf yellowing)
Description: (§1) All studies were conducted in the greenhouse at the research farm of Valent BioSciences Corporation (Long Grove, Ill.). Pansy plants were obtained either from local retailers as mature plants, or plugs from wholesale nurseries. Plugs of Pansy plants were transplanted into an 18-cell flat filled with Promix BX (available from Premier Horticulture Inc. Quakertown, Pa.) and grown for about 30 days prior to treatment. During growing periods, plants received daily irrigation and weekly fertilizer (1 g/L all purpose fertilizer 20-20-20, The Scotts Company, Marysville, Ohio).
(§2) Uniform plants were selected for the study. Prior to chemical treatment, plants were saturated with water and then drained for about two hours. A total of 20 mL chemical solution, which is equivalent to about 10% of the cell volume, was applied to each plant with 3 mL solution foliar applied to canopy and 17 mL solution drench applied to root zone. Unless specified, watering of plants was stopped after chemical treatment.
After chemical treatment, plants were arranged in a randomized complete block experimental design. The plants were rated daily for the extent of wilting on a scale from 1 (no wilting) to 4 (complete wilting) to generated a sales index rating. A rating of 2.5 was the point at which a plant was determined to be unmarketable and the previous day was recorded as the shelf life of that plant in days. […] Leaf transpiration rate was measured after treatment using a LI-1600 Steady State Porometer (LI-Cor, Lincoln, Nebr.). The transpiration rate of each treatment was calculated as the percentage of that of control at each day to reduce day-to-day variation caused by changes of environmental condition such as light intensity, humidity, and temperature.

Pansy plants [2] = test: Pansy shelf life under drought (daily wilting rating, sales index)
Description: as §1, §2
(§3) After chemical treatment, plants were arranged in a randomized complete block experimental design. The plants were rated daily for the extent of wilting on a scale from 1 (no wilting) to 4 (complete wilting) to generated a sales index rating. A rating of 2.5 was the point at which a plant was determined to be unmarketable and the previous day was recorded as the shelf life of that plant in days. Yellow leaf number was counted at 3 days after chemical treatment. Leaf transpiration rate was measured after treatment using a LI-1600 Steady State Porometer (LI-Cor, Lincoln, Nebr.). The transpiration rate of each treatment was calculated as the percentage of that of control at each day to reduce day-to-day variation caused by changes of environmental condition such as light intensity, humidity, and temperature.

Pansy plants [3] = test: Pansy leaf transpiration rate (LI-1600 Steady State Porometer); settings: for Transpiration rate (% of control): Matrix Premium Rose, Table 16; for Transpiration inhibition: sufficient water
Description: as §2, §3

Pansy plants [4] = test: Plant elongation after gibberellin treatment; settings: 0.1 mg or 1 mg per plant; Delta Premium Pure White
Description: GA4/7 reduced the number of yellow leaves more than GA3.

Yellow leaf number (Pansy plants [1]; 0.1 mg, Matrix Orange, drought, 3 d after treatment, Table 1): 3
Yellow leaf number (Pansy plants [1]; 0.3 mg, Clear Sky Yellow, drought, 3 d after treatment, Table 8): 2.8
Yellow leaf number (Pansy plants [1]; 0.3 mg, Crown Azure Blue, drought, 3 d after treatment, Table 9): 4.8
Yellow leaf number (Pansy plants [1]; 0.3 mg, Matrix Orange, drought, 3 d after treatment, Table 1): 5
Yellow leaf number (Pansy plants [1]; 0.3 mg, Matrix Orange, drought, 3 d after treatment, Table 2): 9.0
Yellow leaf number (Pansy plants [1]; 0.3 mg, Matrix Yellow, drought, 3 d after treatment, Table 7): 9.7
Yellow leaf number (Pansy plants [1]; 1 mg, Matrix Orange, drought, 3 d after treatment, Table 1): 7
Yellow leaf number (Pansy plants [1]; 3 mg PBI-429, no water, Whispers White, 3 d after treatment, Table 15): 23.3
Yellow leaf number (Pansy plants [1]; 3 mg, Clear Sky Yellow, drought, 3 d after treatment, Table 8): 4.8
Yellow leaf number (Pansy plants [1]; 3 mg, Crown Azure Blue, drought, 3 d after treatment, Table 9): 7.7
Yellow leaf number (Pansy plants [1]; 3 mg, Matrix Orange, drought, 3 d after treatment, Table 1): 10
Yellow leaf number (Pansy plants [1]; 3 mg, Matrix Yellow, drought, 3 d after treatment, Table 7): 13.2
SMILES: C#CC1(C)CC(=O)C=C(C)C1(O)/C=C/C(C)=C\C(=O)OC (stereo not drawn) [PBI-429, 8′ acetylene-ABA methyl ester]
Shelf life (Pansy plants [2]; 0.1 mg, Matrix Orange, drought, Table 1): 5.5 days
Shelf life (Pansy plants [2]; 0.3 mg PBI-429, no water, Whispers White, Table 15): 3.8 days
Shelf life (Pansy plants [2]; 0.3 mg, Clear Sky Yellow, drought, Table 8): 6.5 days
Shelf life (Pansy plants [2]; 0.3 mg, Crown Azure Blue, drought, Table 9): 4.5 days
Shelf life (Pansy plants [2]; 0.3 mg, Matrix Orange, drought, Table 1): 5.8 days
Shelf life (Pansy plants [2]; 0.3 mg, Matrix Orange, drought, Table 2): 5.8 days
Shelf life (Pansy plants [2]; 0.3 mg, Matrix Yellow, drought, Table 7): 7.5 days
Shelf life (Pansy plants [2]; 1 mg, Matrix Orange, drought, Table 1): 7.0 days
Shelf life (Pansy plants [2]; 3 mg PBI-429, no water, Whispers White, Table 15): 7.2 days
Shelf life (Pansy plants [2]; 3 mg, Clear Sky Yellow, drought, Table 8): 8.7 days
Shelf life (Pansy plants [2]; 3 mg, Crown Azure Blue, drought, Table 9): 7.0 days
Shelf life (Pansy plants [2]; 3 mg, Matrix Orange, drought, Table 1): 8.3 days
Shelf life (Pansy plants [2]; 3 mg, Matrix Orange, drought, Table 2): 9.5 days
Shelf life (Pansy plants [2]; 3 mg, Matrix Yellow, drought, Table 7): 8.8 days
Transpiration rate (% of control) (Pansy plants [3]; 0.3 mg PBI-429, no water, day 1 after treatment): 34 % of control
Transpiration rate (% of control) (Pansy plants [3]; 0.3 mg PBI-429, no water, day 2 after treatment): 35 % of control
Transpiration rate (% of control) (Pansy plants [3]; 0.3 mg PBI-429, no water, day 3 after treatment): 26 % of control
Transpiration inhibition (Pansy plants [3]; 0.3 mg PBI-429, through 3 days after treatment): greater than 50%
Transpiration rate (% of control) (Pansy plants [3]; 0.3 mg PBI-429, watered, day 1 after treatment): 32 % of control
Transpiration rate (% of control) (Pansy plants [3]; 0.3 mg PBI-429, watered, day 2 after treatment): 33 % of control
Transpiration rate (% of control) (Pansy plants [3]; 0.3 mg PBI-429, watered, day 3 after treatment): 44 % of control
Transpiration rate (% of control) (Pansy plants [3]; 0.3 mg PBI-429, watered, day 4 after treatment): 68 % of control
Transpiration rate (% of control) (Pansy plants [3]; 0.3 mg PBI-429, watered, day 5 after treatment): 74 % of control
Transpiration rate (% of control) (Pansy plants [3]; 0.3 mg PBI-429, watered, day 7 after treatment): 81 % of control
Transpiration rate (% of control) (Pansy plants [3]; 0.3 mg PBI-429, watered, day 10 after treatment): 88 % of control
Transpiration rate (% of control) (Pansy plants [3]; 3 mg PBI-429, no water, day 1 after treatment): 23 % of control
Transpiration rate (% of control) (Pansy plants [3]; 3 mg PBI-429, no water, day 2 after treatment): 14 % of control
Transpiration rate (% of control) (Pansy plants [3]; 3 mg PBI-429, no water, day 3 after treatment): 9 % of control
Transpiration rate (% of control) (Pansy plants [3]; 3 mg PBI-429, no water, day 4 after treatment): 10 % of control
Transpiration rate (% of control) (Pansy plants [3]; 3 mg PBI-429, no water, day 5 after treatment): 18 % of control
Transpiration inhibition (Pansy plants [3]; 3 mg PBI-429, through 10 days after treatment): greater than 50%
Transpiration rate (% of control) (Pansy plants [3]; 3 mg PBI-429, watered, day 1 after treatment): 20 % of control
Transpiration rate (% of control) (Pansy plants [3]; 3 mg PBI-429, watered, day 2 after treatment): 15 % of control
Transpiration rate (% of control) (Pansy plants [3]; 3 mg PBI-429, watered, day 3 after treatment): 29 % of control
Transpiration rate (% of control) (Pansy plants [3]; 3 mg PBI-429, watered, day 4 after treatment): 28 % of control
Transpiration rate (% of control) (Pansy plants [3]; 3 mg PBI-429, watered, day 5 after treatment): 32 % of control
Transpiration rate (% of control) (Pansy plants [3]; 3 mg PBI-429, watered, day 7 after treatment): 44 % of control
Transpiration rate (% of control) (Pansy plants [3]; 3 mg PBI-429, watered, day 10 after treatment): 46 % of control

SMILES: C=C1C[C@]23C[C@@]1(O)CC[C@H]2[C@@]12C=C[C@H](O)[C@@](C)(C(=O)O1)[C@H]2[C@@H]3C(=O)O [GA3, gibberellin A3]
Yellow leaf number (Pansy plants [1]; 0.1 mg, Delta Premium Pure White, 3 days after treatment, Table 24): 1.3
Yellow leaf number (Pansy plants [1]; 0.1 mg, Delta Premium Pure White, 7 days after treatment, Table 24): 3.8
Yellow leaf number (Pansy plants [1]; 1 mg, Delta Premium Pure White, 3 days after treatment, Table 24): 1.2
Yellow leaf number (Pansy plants [1]; 1 mg, Delta Premium Pure White, 7 days after treatment, Table 24): 3.7
Shelf life (Pansy plants [2]; 0.1 mg, Delta Premium Pure White, Table 24): 4.3 days
Shelf life (Pansy plants [2]; 1 mg, Delta Premium Pure White, Table 24): 4.0 days
Effect on plant elongation (Pansy plants [4]): no apparent effect
